Results from PMC7651855 (ACS nano, 2019).
Bridges are numbered along the chain shown (N, C = ends). Where no end group is shown, it is not given here.

System: C57bl/6 mice
Type: in vivo, mouse
Conditions: n=3; for CNS accumulation of NA-HRP (result in words): biotin-peptide:NA-HRP complex, IP, 24 hours post-injection

| Sequence | CNS accumulation of NA-HRP (result in words) | NA-delivery to the forebrain (result in words) (peptide-neutravidin-HRP, 10 μg per mouse IP, 24 hours) |
| --- | --- | --- |
| SACHQSQSRMCGGG (disulfide 3-11 (inferred)) [TACL10] | trended toward significant CNS accumulation |  |
| SACPLSKGKLCGGG (disulfide 3-11 (inferred)) [TACL08] |  | increased NA-delivery to the forebrain when compared against controls |
| SACSQKNFTHCGGG (disulfide 3-11 (inferred)) [TACL06] | trended toward significant CNS accumulation |  |
